Measured values taken from patent US20250288572A1, “COMPOSITIONS AND METHODS FOR TREATING PULMONARY VASCULAR DISEASE” (UNIVERSITY OF PITTSBURGH-OF THE COMMONWEALTH SYSTEM OF …, priority 2022, published 2025).
“Also recorded” adds a separate entry of the source.

Assays:
ISCU [1] = assay: Immunoblot and densitometry of ISCU and GSTP1 in PASMCs; type: cell-based, human; settings: IL-6/sIL-6R + hypoxia, BRD2889 1 uM
Procedure: (§1) BRD2889 (1 uM) vs. vehicle control were added, as indicated, and placed into a hypoxia chamber for 24 h. The hypoxia chamber (modular incubator chamber) was obtained from Billups-Rothenberg Inc. (Del Mar, Cali) and placed in regulated CO2 incubator at 37° C.
(§2) Immunoblot and densitometry: Cells were lysed in RIPA buffer (Sigma) along with 1× protease inhibitor cocktail (Sigma). Protein lysate was resolved by gradient 4%-15% SDS-PAGE gels and transferred onto a 0.2 μm PVDF membrane (Bio-Rad). Membranes were blocked in 5% non-fat milk in 1×PBST buffer for one hour at room temperature. Later, they were incubated in the presence of the primary antibody overnight at 4° C., and then appropriate HRP-conjugated secondary antibodies (Life Technologies). The following antibodies were used: human LGALS8 (AF1305, RnD Systems), mouse/rat Lgals8 ([…], Abcam), pSTAT1 (ab29045, Abcam) and STAT1 (ab47425, Abcam), GSTP1 (ab153949, Abcam), ISCU (14812-1-AP, Pointech), Glutathione (ab19534, Abcam), HIF2A (NB100-122, Novous), α-Tubulin (CP06, Millipore sigma), and ACTB (sc-47778, Santa Cruz). The immunoreactive bands were visualized with the Chemidoc XRS+ system (Bio-Rad) using SuperSignal West Femto chemiluminescent substrates (Thermo Fisher Scientific). The images were later quantified using AlphaEaseFC software (Alpha Innotech).

mitochondrial Complex 1 = assay: Mitochondrial Complex 1 activity in PASMCs; type: cell-based, human; settings: IL-6/sIL-6R + hypoxia
Procedure: as §1
Measurement of mitochondrial complex activities: Complex 1 activity of isolated mitochondria were measured using Complex 1 Enzyme Activity Microplate assay kit (Abcam, ab109721) according to the manufacturer's protocol. These enzymes were captured within the wells of the microplate coated by the corresponding complex enzyme antibody, and activities were detected colorimetrically.

hypoxic IL-6 Tg mice = assay: Chronically hypoxic IL-6 transgenic PAH mouse model; type: in vivo, IL-6 transgenic mice (C57B/6 background)
Procedure: Pulmonary-specific IL-6 transgenic mice (C57B/6 background) were described previously (Steiner M K et al. Circ Res. 2009, 104, 236-244, 228p following 244). These mice were bred in house, and 12 week old male transgenic mice vs. control littermates were compared. Mice were injected i.p. every 3 days with vehicle control (2.5% DMSO) vs. BRD2889 (5 mg/kg vs. […] Circ Res. 2009, 104, 236-244, 228p following 244).
(§3) Rodent echocardiography: Echocardiography was performed using a 15-45M Hz transthoracic transducer and a Visual Sonics Vevo 3100 system (Fujifilm). Inhaled isoflurane anesthesia was used at 2% in 100% 02 during positioning and hair removal and then decreased to isoflurane 0.8% during imaging.

PASMCs = assay: Apoptosis (caspase 3/7) in PASMCs; type: cell-based, human; settings: IL-6/sIL-6R + hypoxia
Procedure: as §1
Cellular apoptosis: Caspase-3/7 activity was quantified using the Caspase-Glo 3/7 Assay (Promega), according to manufacturer's instructions. Caspase-3/7 activity was normalized to total protein content determined by BCA method (Thermo Fisher Scientific).

[2] = test system: glutathione S-transferase (GST); assay: Measurement of GST activity in PASMCs; type: cell-based, human; settings: IL-6/sIL-6R + hypoxia, BRD2889 1 uM
Procedure: as §1

[3] = test system: glutathione S-transferase (GST); assay: Measurement of GST activity in PAECs; type: cell-based, human
Procedure: as §1

[4] = test system: SU5416-hypoxic pulmonary arterial hypertension rats; assay: SU5416-hypoxia pulmonary arterial hypertension rat model, disease-reversal dosing; type: in vivo, Sprague-Dawley rats
Procedure: Briefly, 10 week old male Sprague-Dawley rats were injected i.p. with 20 mg/kg of SU5416 (Sigma), placed in normobaric hypoxia (10% 02) for 3 weeks and then transferred to normoxia for 2 weeks. During hypoxic exposure, chambers were opened twice a week for cleaning and replenishment of food and water. […] For BRD2889 vs. vehicle control dosing, i.p. injections every 5 days (5 mg/kg) were administered during the final two weeks of normoxia. Oxygen concentrations were continuously monitored with blood gas analyzers.
(§4) Measurement of GST activity: The GST activity from lung tissue and PAECs was assayed using GST assay kit (Cayman, MI, USA) per the manufacturer's instructions.
as §3

[5] = test system: monocrotaline-exposed pulmonary arterial hypertension rats; assay: Monocrotaline (MCT) pulmonary arterial hypertension rat model, dosing Days 12-26
Procedure: as §4

PAECs = assay: BrdU growth (proliferation) assay in PAECs; type: cell-based, human
Procedure: BrdU growth assay: Cell proliferation was assayed relative to day 0 using a BrdU Cell Proliferation Assay Kit (#6813, Cell Signaling) according to the manufacturer's protocol after incubation for 2 h with BrdU.

ISCU [6] = assay: Immunoprecipitation/immunoblot of glutathionylated ISCU in PAECs; type: cell-based, human; design: dose or concentration left out as unconfirmed; settings: hypoxic PAECs, BRD2889 (24 h)
Procedure: as §2, with “The immunoreactive bands were visualized with the Chemidoc XRS+ system (Bio-Rad) using SuperSignal West Femto chemiluminescent substrates (Thermo Fisher Scientific).” left out
Immunoprecipitation: PAECs were transfected with the indicated combinations of siRNAs by Lipofectamine 2000 (Thermo Fisher Scientific) according to the manufacturer's instructions and/or treated with BRD2889 ([…], 24 h). […] After extensive washing, the immunoprecipitated proteins were analyzed by immunoblotting with the indicated antibodies.

[7] = BRD2889 10 mg/kg vs vehicle, 10 days, 10 mg/kg
[8] = BRD2889 5 and 10 mg/kg i.p. every three days
[9] = SU5416-hypoxia rats, vs vehicle control
[10] = SU5416-hypoxia rats, I-BET762 30 mg/kg daily i.p. or BRD2889 5 mg/kg i.p. every 5 days, final 2 weeks
[11] = I-BET762 30 mg/kg daily i.p. or BRD2889 5 mg/kg i.p. every 5 days, Days 12-26

COc1ccc(C#CC2CCCN(C(=O)/C=C/c3cc(OC)c(OC)c(OC)c3)C2=O)cc1 (stereo not drawn) [BRD2889, (E)-3-((4-methoxyphenyl)ethynyl)-1-(3-(3,4,5-trimethoxyphenyl)acryloyl)piperidin-2-one]
GSTP1 protein expression (ISCU [1]): did not affect
ISCU protein (ISCU [1]): failed to rescue ISCU
mitochondrial Complex 1 activity (mitochondrial Complex 1): did not affect
heart rate (hypoxic IL-6 Tg mice; [7]): No significant differences
left ventricular function (fractional shortening, ejection fraction, posterior wall thickness) (hypoxic IL-6 Tg mice; [7]): No significant differences
Fulton index (RV/LV+S) (hypoxic IL-6 Tg mice; [8]): dose-dependent reduction; also recorded: reduced
ISCU in arterioles / CD31+ endothelium (hypoxic IL-6 Tg mice; [8]): rescued ISCU; also recorded: increased
RVSP (hypoxic IL-6 Tg mice; [8]): dose-dependent reduction; also recorded: reduced
arteriolar muscularization / pulmonary arteriolar remodeling (hypoxic IL-6 Tg mice; [8]): reduction; also recorded: reduced
cleaved caspase-3 (CC-3), endothelial apoptosis (hypoxic IL-6 Tg mice; [8]): reduction; also recorded: decreased
lung total GST enzyme activity (hypoxic IL-6 Tg mice; [8]): dose-dependent reduction; also recorded: decreased lung GST activity in a dose-dependent manner
apoptosis (PASMCs): only subtly changed
GST activity [2]: failed to rescue ISCU or alter GST activity; also recorded: did not affect
GST activity ([3]; PAECs, IL-6/sIL-6R + hypoxia, BRD2889 1 uM): reversed the increase in GSTP1 activity; also recorded: reversed the IL-6/R+ hypoxia-mediated increase
GST enzyme activity ([3]; hypoxic PAECs): reduced the hypoxic increase in GST enzyme activity; also recorded: reversed hypoxic alterations
aortic blood pressure (mean arterial pressure, MAP) [4, 9]: without significant alterations
heart rate [4, 9]: without significant alterations
left ventricular function (LVPW thickness, LVEF, LVFS; echocardiography) [4, 9]: no alteration of left ventricular function; also recorded: did not exhibit altered left ventricular function
endothelial ISCU (immunofluorescence) ([4]; SU5416-hypoxia rats, BRD2889 5 mg/kg i.p. every 5 days): increased
lung GST activity ([4]; SU5416-hypoxia rats, BRD2889 5 mg/kg i.p. every 5 days, 5 mg/kg): reduced; also recorded: decreased
transcript levels of injury markers of liver (Got, Gpt1) and kidney (Cst3, Lcn2), tissue toxicity ([4]; SU5416-hypoxia rats, BRD2889 vs VC, RT-qPCR): no indication of overt tissue toxicities
Fulton index (RV/LV+S) [4, 10]: reducing; also recorded: reduced
arteriolar muscularization (α-SMA) [4, 10]: reducing; also recorded: reduced
cleaved caspase-3 (CC-3), endothelial apoptosis [4, 10]: reducing; also recorded: decreased
right ventricular systolic pressure (RVSP) [4, 10]: reducing; also recorded: reduced
ascites ([4]; three SU5416-hypoxic rats treated with drug): accumulation of mild ascites
endothelial ISCU (immunofluorescence) ([5]; BRD2889 5 mg/kg i.p. every 5 days): increased
lung GST activity ([5]; BRD2889 5 mg/kg i.p. every 5 days, 5 mg/kg): reduced; also recorded: decreased
transcript levels of injury markers of liver (Got, Gpt1), kidney (Cst3, Lcn2), intestines (Ldha), tissue toxicity ([5]; BRD2889 vs VC, RT-qPCR): no indication of overt tissue toxicities
Fulton index (RV/LV+S) [5, 11]: reducing; also recorded: reduced
arteriolar muscularization (α-SMA) [5, 11]: reducing; also recorded: reduced
cleaved caspase-3 (CC-3), endothelial apoptosis [5, 11]: reducing; also recorded: decreased
right ventricular systolic pressure (RVSP) [5, 11]: reducing; also recorded: reduced
aortic blood pressure (mean arterial pressure, MAP) ([5]; vs vehicle control): without significant alterations
heart rate ([5]; vs vehicle control): without significant alterations
proliferation (BrdU incorporation) (PAECs; PAECs, IL-6/sIL-6R + hypoxia): increased proliferation; also recorded: reversing
proliferation (BrdU incorporation) (PAECs; hypoxic PAECs): reversed the decrease; also recorded: reversed hypoxic alterations
proliferation (BrdU incorporation) (PAECs; hypoxic PAECs with siRNA knockdown of ISCU): did not reverse the hypoxia-induced decrease
ISCU glutathionylation (α-GSH immunoblot after α-ISCU pulldown) (ISCU [6]): converse reduction of glutathionylation; also recorded: reversed these findings; also recorded: reversal of the hypoxic induction of ISCU glutathionylation
